Experimental data reported in ChEMBL document CHEMBL4393743, “Anti-tumor activity evaluation of novel tubulin and HDAC dual-targeting inhibitors” (Bioorg Med Chem Lett, 2019).
Calls of active or inactive are those of the source. The rule behind the calls is not given here.

How the values were obtained:
Tubulin = assay: Inhibition of tubulin polymerization (unknown origin) by spectrophotometric method; type: protein-complex assay, Homo sapiens
LoVo = assay: Antiproliferative activity against human LoVo cells assessed as cell growth inhibition incubated for 72 hrs by MTT assay; type: functional, cell-based
Histone deacetylase 8 = target: T1, Histone deacetylase 8 (Homo sapiens, UniProt Q9BY41); assay: Inhibition of HDAC8 (unknown origin) using Boc-Lys(Ac)-AMC as substrate incubated for 60 mins by fluorescence assay
T1 sequence (Q9BY41 whole entry): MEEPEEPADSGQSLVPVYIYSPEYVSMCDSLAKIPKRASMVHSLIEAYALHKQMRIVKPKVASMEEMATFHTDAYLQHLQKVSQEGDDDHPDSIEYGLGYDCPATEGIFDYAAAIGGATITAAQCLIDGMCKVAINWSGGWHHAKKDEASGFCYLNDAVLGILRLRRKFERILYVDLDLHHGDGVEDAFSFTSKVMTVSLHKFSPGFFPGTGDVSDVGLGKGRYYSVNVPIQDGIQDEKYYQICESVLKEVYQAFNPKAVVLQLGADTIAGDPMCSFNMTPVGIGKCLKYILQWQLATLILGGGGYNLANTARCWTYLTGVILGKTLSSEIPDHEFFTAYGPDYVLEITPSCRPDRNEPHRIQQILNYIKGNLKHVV

NCI-H226 = assay: Antiproliferative activity against human NCI-H226 cells assessed as cell growth inhibition incubated for 72 hrs by MTT assay; type: functional, cell-based; settings: NCI-H226, 72 h
Histone deacetylase 1 = Histone deacetylase 1 (Homo sapiens, UniProt Q13547); assay: Inhibition of HDAC1 (unknown origin) using Boc-Lys(Ac)-AMC as substrate incubated for 60 mins by fluorescence assay
Sequence of Histone deacetylase 1 (Q13547 whole entry): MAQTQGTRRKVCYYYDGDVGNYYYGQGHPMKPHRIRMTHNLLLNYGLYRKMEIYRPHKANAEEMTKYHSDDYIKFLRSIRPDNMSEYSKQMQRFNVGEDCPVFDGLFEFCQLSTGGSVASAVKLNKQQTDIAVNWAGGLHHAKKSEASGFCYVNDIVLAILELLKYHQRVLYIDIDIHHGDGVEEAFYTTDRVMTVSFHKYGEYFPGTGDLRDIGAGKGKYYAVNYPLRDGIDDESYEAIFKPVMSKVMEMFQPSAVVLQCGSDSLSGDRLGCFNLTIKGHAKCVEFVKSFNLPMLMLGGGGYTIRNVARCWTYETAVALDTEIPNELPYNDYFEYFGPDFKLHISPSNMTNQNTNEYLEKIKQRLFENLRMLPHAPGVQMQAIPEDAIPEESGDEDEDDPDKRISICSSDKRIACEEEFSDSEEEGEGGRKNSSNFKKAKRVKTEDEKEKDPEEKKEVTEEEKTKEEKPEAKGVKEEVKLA

[1] = target: T2, Protein deacetylase HDAC6 (Homo sapiens, UniProt Q9UBN7); assay: Inhibition of HDAC6 (unknown origin) using Boc-Lys(Ac)-AMC as substrate incubated for 60 mins by fluorescence assay
T2 sequence (Q9UBN7 whole entry): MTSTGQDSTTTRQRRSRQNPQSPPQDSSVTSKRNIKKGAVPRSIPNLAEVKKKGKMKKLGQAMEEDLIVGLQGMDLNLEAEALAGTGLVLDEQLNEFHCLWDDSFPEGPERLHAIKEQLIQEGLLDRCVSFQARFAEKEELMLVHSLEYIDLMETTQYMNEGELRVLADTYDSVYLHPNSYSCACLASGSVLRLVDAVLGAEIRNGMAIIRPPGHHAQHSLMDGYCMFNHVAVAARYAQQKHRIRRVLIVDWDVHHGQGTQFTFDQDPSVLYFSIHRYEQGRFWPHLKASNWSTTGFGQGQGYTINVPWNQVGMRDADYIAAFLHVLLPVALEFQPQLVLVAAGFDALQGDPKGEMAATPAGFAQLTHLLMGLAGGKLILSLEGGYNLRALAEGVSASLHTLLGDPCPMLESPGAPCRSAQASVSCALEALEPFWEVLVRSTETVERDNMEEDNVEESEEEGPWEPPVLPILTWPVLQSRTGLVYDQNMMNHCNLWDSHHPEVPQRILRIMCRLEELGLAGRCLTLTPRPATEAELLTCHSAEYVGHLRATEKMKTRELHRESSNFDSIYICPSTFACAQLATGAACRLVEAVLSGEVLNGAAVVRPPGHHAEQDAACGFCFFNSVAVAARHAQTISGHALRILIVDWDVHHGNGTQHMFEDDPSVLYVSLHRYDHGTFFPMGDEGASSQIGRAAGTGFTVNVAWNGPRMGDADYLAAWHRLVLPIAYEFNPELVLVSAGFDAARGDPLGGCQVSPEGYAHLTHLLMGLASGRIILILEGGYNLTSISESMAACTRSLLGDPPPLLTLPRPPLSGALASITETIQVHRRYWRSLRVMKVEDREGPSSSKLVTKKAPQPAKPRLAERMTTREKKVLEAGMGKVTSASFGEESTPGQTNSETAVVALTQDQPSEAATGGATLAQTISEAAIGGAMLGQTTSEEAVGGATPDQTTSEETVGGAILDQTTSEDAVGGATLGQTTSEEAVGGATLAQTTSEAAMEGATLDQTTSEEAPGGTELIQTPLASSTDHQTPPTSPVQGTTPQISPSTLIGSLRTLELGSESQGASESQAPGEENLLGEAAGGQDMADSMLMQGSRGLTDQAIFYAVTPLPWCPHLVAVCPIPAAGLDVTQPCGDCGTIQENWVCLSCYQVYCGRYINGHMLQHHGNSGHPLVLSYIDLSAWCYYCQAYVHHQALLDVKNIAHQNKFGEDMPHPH

HeLa = assay: Antiproliferative activity against human HeLa cells assessed as cell growth inhibition incubated for 72 hrs by MTT assay; type: functional, cell-based
A549 [2] = assay: Antiproliferative activity against human A549 cells assessed as cell growth inhibition incubated for 72 hrs by MTT assay; type: functional, cell-based; settings: A549, 72 h
SGC-7901 = assay: Antiproliferative activity against human SGC7901 cells assessed as cell growth inhibition incubated for 72 hrs by MTT assay; type: functional, cell-based; settings: SGC-7901, 72 h
HCT-116 = assay: Antiproliferative activity against human HCT116 cells assessed as cell growth inhibition incubated for 72 hrs by MTT assay; type: functional, cell-based; settings: HCT-116, 72 h
NCI-H460 = assay: Antiproliferative activity against human NCI-H460 cells assessed as cell growth inhibition incubated for 72 hrs by MTT assay; type: functional, cell-based; settings: NCI-H460, 72 h
MCF7 = assay: Antiproliferative activity against human MCF7 cells assessed as cell growth inhibition incubated for 72 hrs by MTT assay; type: functional, cell-based; settings: MCF7, 72 h
MDA-MB-231 = assay: Antiproliferative activity against human MDA-MB-231 cells assessed as cell growth inhibition incubated for 72 hrs by MTT assay; type: functional, cell-based; settings: MDA-MB-231, 72 h
MGC-803 = assay: Antiproliferative activity against human MGC803 cells assessed as cell growth inhibition incubated for 72 hrs by MTT assay; type: functional, cell-based; settings: MGC-803, 72 h
BGC-823 = assay: Antiproliferative activity against human BGC823 cells assessed as cell growth inhibition incubated for 72 hrs by MTT assay; type: functional, cell-based; settings: BGC-823, 72 h
Histone deacetylase = assay: Inhibition of HDAC in human HeLA cell nuclear extracts; type: cell-based
[3] = target: Histone deacetylase (Homo sapiens) (UniProt Q13547+O15379+Q9UBN7+Q92769+Q9UQL6+Q8WUI4+Q9BY41+Q96DB2+P56524+Q9UKV0+Q969S8); settings: HeLa, at 1 µM
Description: Inhibition of HDAC in human HeLa cell nuclear extracts at 1 uM

A549 [4] = assay: Induction of apoptosis in human A549 cells assessed as live cells at 10 uM incubated for 72 hrs by Annexin V-FITC/propidium iodide-staining based flow cytometric analysis (reference value: 89.8%); type: functional
A549 [5] = assay: Induction of apoptosis in human A549 cells assessed as early apoptotic cells at 10 uM incubated for 72 hrs by Annexin V-FITC/propidium iodide-staining based flow cytometric analysis (reference value: 1.8%); type: functional
A549 [6] = assay: Induction of apoptosis in human A549 cells assessed as late apoptotic cells at 10 uM incubated for 72 hrs by Annexin V-FITC/propidium iodide-staining based flow cytometric analysis (reference value: 5.69%); type: functional
A549 [7] = assay: Induction of apoptosis in human A549 cells assessed as necrotic cells at 10 uM incubated for 72 hrs by Annexin V-FITC/propidium iodide-staining based flow cytometric analysis (reference value: 2.76%); type: functional
A549 [8] = assay: Induction of cell cycle arrest in human A549 cells assessed as accumulation at G0/G1 phase at 10 uM incubated for 36 hrs by propidium iodide staining based flow cytometry (reference value: 72.51%); type: functional
A549 [9] = assay: Induction of cell cycle arrest in human A549 cells assessed as accumulation at S phase at 10 uM incubated for 36 hrs by propidium iodide staining based flow cytometry (reference value: 16.66%); type: functional
A549 [10] = assay: Induction of cell cycle arrest in human A549 cells assessed as accumulation at G2/M phase at 10 uM incubated for 36 hrs by propidium iodide staining based flow cytometry (reference value: 10.83%); type: functional
A549 [11] = assay: Antimigratory activity in human A549 cells at 5 to 10 uM incubated for 12 hrs in presence of mitomycin by inverted microscopic-based wound healing assay; type: functional, cell-based

Row | SMILES | IC50 (LoVo) [µM] | IC50 (HeLa) [µM] | IC50 (A549 [2]) [µM] | IC50 (SGC-7901) [µM] | inhibition [3] [%] | other results
1 | COc1ccc(/C=C(\C)C(=O)c2cc(OC)c(OC)c(OC)c2)cc1OCCCCCCCC(=O)NO | 9.93 | 19.4 | 20 | 28.3 | 92.3 | IC50 (Tubulin): 5 µM; IC50 (Histone deacetylase 8): 4.91 µM; IC50 (NCI-H226): 23.2 µM; IC50 (Histone deacetylase 1): 0.0152 µM; IC50 [1]: 0.0136 µM; IC50 (HCT-116): 10.7 µM; IC50 (NCI-H460): 20.2 µM; IC50 (MCF7): 12 µM; IC50 (MDA-MB-231): 11.8 µM; IC50 (MGC-803): 16.4 µM; IC50 (BGC-823): 15.2 µM; IC50 (Histone deacetylase): 0.0715 µM
2 | COc1ccc(/C=C/C(=O)c2cc(OC)c(OC)c(OC)c2)cc1O | 3.99 | 0.44 | 1.02 | 1.13 | – | IC50 (Tubulin): 4 µM; IC50 (NCI-H226): 4.38 µM; IC50 (HCT-116): 2.85 µM; IC50 (NCI-H460): 4.98 µM; IC50 (MCF7): 8.6 µM; IC50 (MDA-MB-231): 4.28 µM; IC50 (MGC-803): 8.33 µM; IC50 (BGC-823): 7.58 µM
3 | COc1ccc(/C=C/C(=O)c2cc(OC)c(OC)c(OC)c2)cc1OCCCCCC(=O)NO | – | 24.6 | 9.4 | 25.2 | 78.5 | –
4 | COc1ccc(/C=C(\C)C(=O)c2cc(OC)c(OC)c(OC)c2)cc1OCCCCCC(=O)NO | – | 10.4 | 13.6 | 14 | 74.8 | –
5 | O=C(CCCCCCC(=O)Nc1ccccc1)NO [VORINOSTAT] | 2.15 | – | – | 1.03 | – | Activity (A549 [4]): 60.3%; Activity (A549 [5]): 7.17%; Activity (A549 [6]): 24%; Activity (A549 [7]): 8.58%; Activity (A549 [8]): 9.61%; Activity (A549 [9]): 39.53%; Activity (A549 [10]): 50.86%; Activity (A549 [11]): Active
6 | COc1ccc(/C=C/C(=O)c2cc(OC)c(OC)c(OC)c2)cc1OCCCCC(=O)NO | – | 25.9 | 14.3 | > 50 | 32.9 | –
7 | COc1ccc(/C=C(\C)C(=O)c2cc(OC)c(OC)c(OC)c2)cc1OCCCCC(=O)NO | – | 3.15 | 1.45 | 13.9 | 35.4 | –
8 | COc1ccc(/C=C(\C)C(=O)c2cc(OC)c(OC)c(OC)c2)cc1OCCCCCCC(=O)NO | – | 16.6 | 11.5 | 20 | 86 | –
9 | COc1ccc(/C=C/C(=O)c2cc(OC)c(OC)c(OC)c2)cc1OCCCCCCCC(=O)NO | – | 37.2 | 13.3 | > 50 | 84.8 | –
10 | COc1ccc(/C=C(\C)C(=O)c2cc(OC)c(OC)c(OC)c2)cc1O | – | > 50 | 1.51 | 2.06 | – | –
11 | COc1ccc(/C=C/C(=O)c2cc(OC)c(OC)c(OC)c2)cc1OCCCCCCC(=O)NO | 12.6 | 21.4 | 7.15 | 24.5 | 87.3 | IC50 (Tubulin): 10.4 µM; IC50 (Histone deacetylase 8): 3.88 µM; IC50 (NCI-H226): 15.7 µM; IC50 (Histone deacetylase 1): 0.0363 µM; IC50 [1]: 0.0046 µM; IC50 (HCT-116): 29.9 µM; IC50 (NCI-H460): 13.2 µM; IC50 (MCF7): 17.9 µM; IC50 (MDA-MB-231): 15.2 µM; IC50 (MGC-803): 10.1 µM; IC50 (BGC-823): 11.5 µM; IC50 (Histone deacetylase): 0.1326 µM
12 | COc1ccc(/C=C/C(=O)c2cc(OC)c(OC)c(OC)c2)cc1OCCCC(=O)NO | – | 13.3 | 12.2 | 17.4 | 21.8 | –
